# Data from paper PMC12892976, “Alkylation-based optimization of antifungal FPPS inhibitors yields a potent, broad-spectrum lipophilic zoledronate derivative” (mBio, 2025).
# Assays:
# [1] = tested on: Cryptococcus bacillisporus; experiment: MIC broth microdilution (CLSI); type: cell-based; details: Cryptococcus bacillisporus NIH179
# Protocol: (§2) Antifungal susceptibility was determined by broth microdilution according to the CLSI guidelines described in M27-Ed4 ([16]).
# Cryptococcus tetragattii = experiment: MIC broth microdilution (CLSI); type: cell-based; details: Cryptococcus tetragattii WM779
# Protocol: as §2
# [2] = tested on: Cryptococcus deneoformans; experiment: MIC broth microdilution (CLSI); type: cell-based; details: Cryptococcus deneoformans JEC21
# Protocol: as §2
# Pichia kudriavzevii = experiment: MIC broth microdilution (CLSI); type: cell-based; details: Pichia kudriavzavii ATCC 6258
# Protocol: (§3) Antifungal susceptibility was determined by broth microdilution according to the CLSI guidelines described in M27-Ed4 ([16]). […] MFC was determined by back-plating drug-treated cultures from MIC broths onto SDA plates. The MFC was defined as the lowest concentration from which no colonies could be cultured.
# Candida auris [3] = experiment: MIC broth microdilution (CLSI); type: cell-based; details: Candida auris CDC-0384
# Protocol: as §2
# Candida parapsilosis = experiment: MIC broth microdilution (CLSI); type: cell-based; details: Candida parapsilosis ATCC 22018
# Protocol: as §3
# Aspergillus terreus = experiment: MIC broth microdilution (CLSI); type: cell-based; details: Aspergillus terreus 75-16-089-2500
# Protocol: as §2
# Aspergillus lentulus [4] = experiment: MIC broth microdilution (CLSI); type: cell-based; details: Aspergillus lentulus DTO 341-G7
# Protocol: as §2
# Aspergillus parafelis [5] = experiment: MIC broth microdilution (CLSI); type: cell-based; details: Aspergillus parafelis DTO 341-F2
# Protocol: as §2
# [6] = tested on: Trichophyton interdigitale; experiment: MIC broth microdilution (CLSI); type: cell-based; details: Trichophyton interdigitale R-234
# Protocol: as §2
# Rhizopus oryzae = experiment: checkerboard drug interaction (FICI, MICc); type: cell-based;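 further: simplified diagonal checkerboard screen pairing antifungals with FPPS inhibitors, FICI calculated under the Loewe additivity model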
# Protocol: (§4) Drug interactions between antifungals and FPPS inhibitors were investigated using a simplified checkerboard diagonal screening method ([45]). […] FICIs were determined according to the Loewe additivity model ([17]).
# Cryptococcus gattii = experiment: checkerboard drug interaction (FICI, MICc); type: cell-based;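 further: simplified diagonal checkerboard screen pairing antifungals with FPPS inhibitors, FICI computed under the Loewe additivity model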
# Protocol: as §4
# [7] = tested on: Cryptococcus deneoformans; experiment: checkerboard drug interaction (FICI, MICc); type: cell-based;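 further: simplified diagonal checkerboard screen pairing antifungals with FPPS inhibitors, FICI calculated under the Loewe additivity model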
# Protocol: as §4
# Fusarium oxysporum = experiment: checkerboard drug interaction (FICI, MICc); type: cell-based;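 further: simplified diagonal checkerboard screen pairing antifungals with FPPS inhibitors, FICI calculated under the Loewe additivity model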
# Protocol: as §4
# Candida auris [8] = experiment: checkerboard drug interaction (FICI, MICc); type: cell-based;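 further: simplified diagonal checkerboard screen pairing antifungals with FPPS inhibitors, with FICI computed under the Loewe additivity model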
# Protocol: as §4
# Candida dubliniensis = experiment: checkerboard drug interaction (FICI, MICc); type: cell-based;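 further: simplified diagonal checkerboard screen pairing antifungals with FPPS inhibitors, FICI calculated under the Loewe additivity model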
# Protocol: as §4
# Aspergillus lentulus [9] = experiment: checkerboard drug interaction (FICI, MICc); type: cell-based;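 further: simplified diagonal checkerboard screen pairing antifungals with FPPS inhibitors, with the interaction index calculated under the Loewe additivity model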
# Protocol: as §4
# Aspergillus felis = experiment: checkerboard drug interaction (FICI, MICc); type: cell-based
# Protocol: as §4
# Trichophyton soudanense = experiment: checkerboard drug interaction (FICI, MICc); type: cell-based;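 further: simplified diagonal checkerboard screen pairing antifungals with FPPS inhibitors, FICI computed under the Loewe additivity model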
# Protocol: as §4
# [10] = tested on: Saccharomyces cerevisiae biofilms; experiment: biofilm XTT reduction assay (SIC80, SFICI); type: cell-based; details: for SICc: Saccharomyces cerevisiae; for SIC80: agent alone, Saccharomyces cerevisiae S288c
# Protocol: (§5) Biofilms of Cryptococcus were seeded in DMEM, and all other species were seeded in RPMI-1640.
# [11] = tested on: Aspergillus flavus biofilms; experiment: biofilm XTT reduction assay (SIC80, SFICI); type: cell-based; details: for SICc: Aspergillus flavus; for SIC80: agent alone, Aspergillus flavus ATCC 204304
# Source text: (§1) […]. […] […].
# [12] = tested on: Aspergillus fumigatus biofilms; experiment: biofilm XTT reduction assay (SIC80, SFICI); type: cell-based; details: for SICc: Aspergillus fumigatus; for SIC80: agent alone, Aspergillus fumigatus ATCC 204305
# Source text: as §1
# [13] = tested on: Candida glabrata biofilms; experiment: biofilm XTT reduction assay (SIC80, SFICI); type: cell-based; details: for SICc: Candida glabrata; for SIC80: agent alone, Candida glabrata CBS138
# Source text: as §1
# [14] = tested on: Trichophyton rubrum biofilms; experiment: biofilm XTT reduction assay (SIC80, SFICI); type: cell-based; details: biofilm; for SICc: Trichophyton rubrum; for SIC80: agent alone, Trichophyton rubrum 213
# Protocol: as §5
# Microsporum canis = experiment: MIC broth microdilution (CLSI); details: Microsporum canis R-232
# Protocol: as §2
# Lomentospora prolificans = experiment: checkerboard drug interaction (FICI, MICc)
# Protocol: as §4
# Aspergillus parafelis [15] = experiment: checkerboard drug interaction (FICI, MICc)
# Protocol: as §4
# [16] = tested on: Candida albicans biofilms; experiment: biofilm XTT reduction assay (SIC80, SFICI); details: for SICc: Candida albicans; for SIC80: agent alone, Candida albicans SC5314
# Protocol: as §5
# [17] = tested on: Cryptococcus neoformans biofilms; experiment: biofilm XTT reduction assay (SIC80, SFICI); details: for SICc: Cryptococcus neoformans; for SIC80: agent alone, Cryptococcus neoformans H99
# Protocol: as §5
# [18] = tested on: Cryptococcus deuterogattii biofilms; experiment: biofilm XTT reduction assay (SIC80, SFICI); details: for SICc: Cryptococcus deuterogattii; for SIC80: agent alone, Cryptococcus deuterogattii R265
# Protocol: as §5
smiles,measurement,setting,value
"CCC(C)n1ncn(-c2ccc(N3CCN(c4ccc(OCC5COC(Cn6cncn6)(c6ccc(Cl)cc6Cl)O5)cc4)CC3)cc2)c1=O (centres unmarked) [ITR, itraconazole]",MIC / MEC,[1],0.06 µg/mL
same,MIC / MEC,Cryptococcus tetragattii,0.5 µg/mL
same,MIC / MEC,[2],0.06 µg/mL
same,MIC / MEC,Pichia kudriavzevii,1 µg/mL
same,MIC / MEC,Candida auris [3],2 µg/mL
same,MIC / MEC,Candida parapsilosis,0.25 µg/mL
same,MIC / MEC,Aspergillus terreus,0.5 µg/mL
same,MIC / MEC,Aspergillus lentulus [4],2 µg/mL
same,MIC / MEC,Aspergillus parafelis [5],8 µg/mL
same,MIC / MEC,[6],1 µg/mL
same,antifungal MICc,Rhizopus oryzae; in combination with 10-ZOL,0.125
same,antifungal MICc,Rhizopus oryzae; in combination with ZOL,2
same,antifungal MICc,Cryptococcus gattii; in combination with 10-ZOL,0.125
same,antifungal MICc,Cryptococcus gattii; in combination with ZOL,0.125
same,antifungal MICc,[7]; in combination with 10-ZOL,0.063
same,antifungal MICc,[7]; in combination with ZOL,0.125
same,antifungal MICc,Fusarium oxysporum; in combination with 10-ZOL,1
same,antifungal MICc,Fusarium oxysporum; in combination with ZOL,1
same,antifungal MICc,Candida auris [8]; in combination with 10-ZOL,1
same,antifungal MICc,Candida auris [8]; in combination with ZOL,1
same,antifungal MICc,Candida dubliniensis; in combination with 10-ZOL,0.033
same,antifungal MICc,Candida dubliniensis; in combination with ZOL,0.03125
same,antifungal MICc,Aspergillus lentulus [9]; in combination with 10-ZOL,0.25
same,antifungal MICc,Aspergillus lentulus [9]; in combination with ZOL,0.5
same,antifungal MICc,Aspergillus felis; in combination with 10-ZOL,0.5
same,antifungal MICc,Aspergillus felis; in combination with ZOL,1
same,antifungal MICc,Trichophyton soudanense; in combination with 10-ZOL,0.25
same,antifungal MICc,Trichophyton soudanense; in combination with ZOL,0.25
same,SICc,[10]; ITR:10-ZOL combination,16 µg/mL
same,SIC80,[10],32 µg/mL
same,SICc,[11]; ITR:10-ZOL combination,64 µg/mL
same,SIC80,[11],128 µg/mL
same,SICc,[12]; ITR:10-ZOL combination,128 µg/mL
same,SIC80,[12],256 µg/mL
same,SICc,[13]; ITR:10-ZOL combination,128 µg/mL
same,SIC80,[13],256 µg/mL
same,SICc,[14]; ITR:10-ZOL combination,64 µg/mL
same,SIC80,[14],>256 µg/mL
same,MIC / MEC,Microsporum canis,0.5 µg/mL
same,antifungal MICc,Lomentospora prolificans; in combination with 10-ZOL,1
same,antifungal MICc,Lomentospora prolificans; in combination with ZOL,2
same,antifungal MICc,Aspergillus parafelis [15]; in combination with 10-ZOL,2
same,antifungal MICc,Aspergillus parafelis [15]; in combination with ZOL,8
same,SICc,[16]; ITR:10-ZOL combination,128 µg/mL
same,SIC80,[16],256 µg/mL
same,SICc,[17]; ITR:10-ZOL combination,32 µg/mL
same,SIC80,[17],64 µg/mL
same,SICc,[18]; ITR:10-ZOL combination,64 µg/mL
same,SIC80,[18],128 µg/mL
"CC(=O)N1CCN(c2ccc(OCC3COC(Cn4ccnc4)(c4ccc(Cl)cc4Cl)O3)cc2)CC1 (centres unmarked) [KET, ketoconazole]",MIC / MEC,[1],0.25 µg/mL
same,MIC / MEC,Cryptococcus tetragattii,0.5 µg/mL
same,MIC / MEC,[2],0.13 µg/mL
same,MIC / MEC,Pichia kudriavzevii,0.25 µg/mL
same,MIC / MEC,Candida auris [3],4 µg/mL
same,MIC / MEC,Candida parapsilosis,0.03 µg/mL
same,MIC / MEC,Aspergillus terreus,2 µg/mL
same,MIC / MEC,Aspergillus lentulus [4],16 µg/mL
same,MIC / MEC,Aspergillus parafelis [5],>16 µg/mL
same,MIC / MEC,[6],8 µg/mL
same,antifungal MICc,Rhizopus oryzae; in combination with 10-ZOL,4
same,antifungal MICc,Rhizopus oryzae; in combination with ZOL,16
same,antifungal MICc,Cryptococcus gattii; in combination with 10-ZOL,0.125
same,antifungal MICc,Cryptococcus gattii; in combination with ZOL,0.5
same,antifungal MICc,[7]; in combination with 10-ZOL,0.063
same,antifungal MICc,[7]; in combination with ZOL,0.03125
same,antifungal MICc,Fusarium oxysporum; in combination with 10-ZOL,16
same,antifungal MICc,Fusarium oxysporum; in combination with ZOL,4
same,antifungal MICc,Candida auris [8]; in combination with 10-ZOL,1
same,antifungal MICc,Candida auris [8]; in combination with ZOL,1
same,antifungal MICc,Candida dubliniensis; in combination with 10-ZOL,0.006
same,antifungal MICc,Candida dubliniensis; in combination with ZOL,0.005
same,antifungal MICc,Aspergillus lentulus [9]; in combination with 10-ZOL,4
same,antifungal MICc,Aspergillus lentulus [9]; in combination with ZOL,4
same,antifungal MICc,Aspergillus felis; in combination with 10-ZOL,4
same,antifungal MICc,Aspergillus felis; in combination with ZOL,8
same,antifungal MICc,Trichophyton soudanense; in combination with 10-ZOL,0.5
same,antifungal MICc,Trichophyton soudanense; in combination with ZOL,1
same,SICc,[10]; KET:10-ZOL combination,16 µg/mL
same,SIC80,[10],32 µg/mL
same,SICc,[11]; KET:10-ZOL combination,64 µg/mL
same,SIC80,[11],128 µg/mL
same,SICc,[12]; KET:10-ZOL combination,64 µg/mL
same,SIC80,[12],256 µg/mL
same,SICc,[13]; KET:10-ZOL combination,64 µg/mL
same,SIC80,[13],256 µg/mL
same,SICc,[14]; KET:10-ZOL combination,64 µg/mL
same,SIC80,[14],256 µg/mL
same,MIC / MEC,Microsporum canis,16 µg/mL
same,antifungal MICc,Lomentospora prolificans; in combination with 10-ZOL,0.25
same,antifungal MICc,Lomentospora prolificans; in combination with ZOL,2
same,antifungal MICc,Aspergillus parafelis [15]; in combination with 10-ZOL,16
same,antifungal MICc,Aspergillus parafelis [15]; in combination with ZOL,32
same,SICc,[16]; KET:10-ZOL combination,32 µg/mL
same,SIC80,[16],64 µg/mL
same,SICc,[17]; KET:10-ZOL combination,16 µg/mL
same,SIC80,[17],32 µg/mL
same,SICc,[18]; KET:10-ZOL combination,32 µg/mL
same,SIC80,[18],256 µg/mL
